Measured values as given in patent US9199975B2, “Biaryl imidazole derivatives for regulating CYP17” (Asana Biosciences, LLC, priority 2011, dated 2015).

These compounds were tested against T1, rat CYP17 (Rattus norvegicus, UniProt P11715) (assay: CYP17 inhibition assay in rat testicular microsomes). Conditions: 3H3-17α-hydroxypregnenolone substrate, 60 minutes at 37° C.
T1 construct: Rat testis tissue was collected and disrupted with 30 strokes of a glass homogenizer; from tissue; host or cells: rat testis (microsomal fraction)
T1 sequence (P11715 1-507): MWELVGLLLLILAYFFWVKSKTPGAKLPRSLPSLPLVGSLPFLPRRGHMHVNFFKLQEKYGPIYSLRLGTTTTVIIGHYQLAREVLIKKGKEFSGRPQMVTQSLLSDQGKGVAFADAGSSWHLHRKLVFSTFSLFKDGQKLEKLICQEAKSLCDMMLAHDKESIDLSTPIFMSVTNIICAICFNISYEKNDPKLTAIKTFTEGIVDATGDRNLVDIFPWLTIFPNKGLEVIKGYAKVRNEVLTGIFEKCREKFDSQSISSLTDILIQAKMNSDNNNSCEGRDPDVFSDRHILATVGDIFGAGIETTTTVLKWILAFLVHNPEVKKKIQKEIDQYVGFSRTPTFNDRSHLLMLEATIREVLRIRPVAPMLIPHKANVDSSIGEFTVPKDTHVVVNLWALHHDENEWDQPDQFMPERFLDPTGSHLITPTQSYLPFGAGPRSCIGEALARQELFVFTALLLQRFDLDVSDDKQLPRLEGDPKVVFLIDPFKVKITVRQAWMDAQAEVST
Format: biochemical
Method: CYP17 Inhibition Assay in Rat Testicular Microsomes (Rat CYP17) or Yeast Microsome Overexpressing Human CYP17
A. Materials • 1. NADPH (Sigma): A working stock was prepared by adding 25 μL of 6.5 mM NADPH in each tube. The final concentration of NADPH used in the assay was 325 μM. • 2. Potassium Phosphate Buffer: One molar (1M) solutions of K2HPO4 and KH2PO4 were prepared. Eight mL of the 1 M KH2PO4 and 1.98 mL of the 1 M K2HPO4 were combined and the pH was adjusted to 7.4. • 3. ^3H3-17α-hydroxypregnenolone (American Radiolabeled Chemicals, Inc., stock 1 μCi/μL): A 1:1 dilution of ^3H3-17α-hydroxypregnenolone in ethanol was prepared by combining 100 μL ^3H3-17α-hydroxypregnenolone+100 μL ethanol for one complete 96 well plate. For the reaction, 2 μL of the diluted ^3H3-17α-hydroxypregnenolone was added in each tube, i.e., 1 μCi/reaction. • 4. Microsome Isolation Buffer: The microsome isolation buffer was prepared by combining 250 mM Sucrose, 5 mM EDTA, 10 mM Tris HCl, 4 mM DTT, and adjusting to pH 7.4. • 5. TEG Buffer: The TEG buffer was prepared by combining 50 mM Tris HCl, 1 mM EDTA, and 20% Glycerol. • 6. Rat Testicular Microsomes: Rat testis tissue was collected and disrupted with 30 strokes of a glass homogenizer on ice with 250 μL of microsome isolation buffer, followed by centrifugation at 10,000 g for 10 minutes at 4° C. The supernatant was collected and centrifuged at 100,000 g for 45 minutes at 4° C. The pellet was dissolved in TEG Buffer and the protein was quantified. The homogenized microsome samples were then frozen at −80° C. • 7. Yeast Microsomes which overexpress the human CYP17 enzyme were obtained from Premas Biotech, India.
Potassium phosphate buffer (470 μL) was prepared as described above and was added to each well of a deep well plate. The test compound was diluted using a TECAN liquid handler and 5 μL of diluted compound was transferred to each well (96 deep well/1 mL). A solution (25 μL) of 6.5 mM NADPH was added (final concentration of 325 µM in the assay). ^3H3-17α-hydroxypregnenolone (2 μL of the working stock) was added to each tube. The plates were then pre-incubated for 15 minutes at 37° C. Following the pre-incubation, either 5 μL rat testicular microsomes (150-160 μg) or 5 μL of yeast microsomes expressing human CYP17 (1.7 pmol), was added. Incubation was at 37° C. for 60 minutes in the presence of oxygen. The plates were then placed in ice and chloroform (500 μL) was added, mixed well and incubated at 4° C. for 20 minutes. The plates were then centrifuged at 1000 rpm for 15 minutes at 4° C.
A portion (300 μL) of the aqueous solution was collected and mixed with a 5% aqueous suspension of activated charcoal (300 μL). The plates were then incubated at 4° C. for 30 minutes, after which the plates were centrifuged at 1000 rpm for 15 minutes at 4° C. From this, 125 μL of the aqueous solution was collected and plated into a 96 well plate. Microscint™ 40 [125 μL, Perkin-Elmer; containing a mixture of a polymer based on alkylphenolethoxylate (20-40%), diethanolamine-phosphoric acid ester ammonium salt (10-20%), sodium dioctyl sulphosuccinate (2.5-10%), triethyl phosphate (2.5-10%), 3,6-dimethyl-4-octyne-3,6-diol (≦2.5%), a polymer based on nonylphenolethoxylate (≦2.5%), diisopropyl naphthalene isomers (40-60%), 2,5-diphenyloxazole (≦2.5%), and 9,10-dimethylanthracene] was added and mixed well. After 30 minutes of incubation, the samples were analyzed with a MicroBeta® Trilux microplate liquid scintillation counter and luminometer (Perkin-Elmer).

`CCC(c1cnc(-c2cccc(F)c2)s1)n1ccnc1` (stereo not drawn) [Example 1, 5-(1-(1H-imidazol-1-yl)propyl)-2-(3-fluorophenyl)thiazole] was tested. Which IC50 did it give?
Its IC50 is under 50 nM.

With `CCC(c1ccc(-c2ccc(OC)cc2)s1)n1ccnc1` (stereo not drawn) [Example 3, 1-(1-(5-(4-methoxyphenyl)thiophen-2-yl)propyl)-1H-imidazole] as the compound, how does the IC50 read?
Its IC50 is under 50 nM.

Which IC50 does the source give for `CCC(c1ccc(-c2ccc(O)cc2)s1)n1ccnc1` (stereo not drawn) [Example 4, 4-(5-(1-(1H-imidazol-1-yl)propyl)thiophen-2-yl)phenol] here?
Its IC50 is under 50 nM.

For `CCOC(=O)c1ccc(-c2ccc(C(CC)n3ccnc3)nc2)cc1` (stereo not drawn) [Example 5, Ethyl 4-(6-(1-(1H-imidazol-1-yl)propyl)pyridin-3-yl)benzoate], which IC50 is on record?
The IC50 was 50 to 200 nM.

With `CCC(c1ccc(-c2ccc(C(=O)O)cc2)cn1)n1ccnc1` (stereo not drawn) [Example 6, 4-(6-(1-(1H-imidazol-1-yl)propyl)pyridin-3-yl)benzoic acid] as the compound, how does the IC50 read?
The IC50 was 201 to 10000 nM.

For `CCC(c1ccc(-c2ccc(C(=O)NC)cc2)cn1)n1ccnc1` (stereo not drawn) [Example 9, 4-(6-(1-(1H-imidazol-1-yl)propyl)pyridin-3-yl)-N-methylbenzamide], which IC50 is on record?
Its IC50 is under 50 nM.

Which IC50 does the source give for `CCC(c1ccc(-c2ccc(C(N)=O)cc2)cn1)n1ccnc1` (stereo not drawn) [Example 10, 4-(6-(1-(1H-imidazol-1-yl)propyl)pyridin-3-yl)benzamide] here?
The IC50 was under 50 nM.

Which IC50 does the source give for `CCC(c1ccc(-c2ccc(COCOC)cc2)cn1)n1ccnc1` (stereo not drawn) [Example 11, 2-(1-(1H-imidazol-1-yl)propyl)-5-(4-((methoxymethoxy)methyl)-phenyl)pyridine] here?
Its IC50 is 50 to 200 nM.

How did the IC50 turn out when `CC(c1ccc(-c2ccc(F)cc2)cn1)n1ccnc1` (stereo not drawn) [Example 12, 2-(1-(1H-imidazol-1-yl)ethyl)-5-(4-fluorophenyl)pyridine] was run?
Its IC50 is under 50 nM.

`CC(c1ccc(-c2ccoc2)cn1)n1ccnc1` (stereo not drawn) [Example 13, 2-(1-(1H-imidazol-1-yl)ethyl)-5-(furan-3-yl)pyridine] was tested. Which IC50 did it give?
Its IC50 is under 50 nM.

With `CC(c1ccc(-c2ccc(N)cc2)cn1)n1ccnc1` (stereo not drawn) [Example 14, 4-(6-(1-(1H-imidazol-1-yl)ethyl)pyridin-3-yl)aniline] as the compound, how does the IC50 read?
The IC50 was 50 to 200 nM.

How did the IC50 turn out when `COc1ccc(-c2ccc(C(C)n3ccnc3)nc2)cc1` (stereo not drawn) [Example 15, 2-(1-(1H-imidazol-1-yl)ethyl)-5-(4-methoxyphenyl)pyridine] was run?
Its IC50 is 50 to 200 nM.

With `CC(c1ccc(-c2ccc(O)cc2)cn1)n1ccnc1` (stereo not drawn) [Example 16, 4-(6-(1-(1H-imidazol-1-yl)ethyl)pyridin-3-yl)phenol] as the compound, how does the IC50 read?
Its IC50 is under 50 nM.

With `CCC(c1ccc(-c2ccc(C#N)cc2)cn1)n1ccnc1` (stereo not drawn) [Example 17, 4-[6-(1-Imidazol-1-yl-propyl)-pyridin-3-yl]-benzonitrile] as the compound, how does the IC50 read?
The IC50 was under 50 nM.

How did the IC50 turn out when `CCC(c1ccc(-c2ccccc2C#N)cn1)n1ccnc1` (stereo not drawn) [Example 18, 2-(6-(1-(1H-imidazol-1-yl)propyl)pyridin-3-yl)benzonitrile] was run?
Its IC50 is under 50 nM.

How did the IC50 turn out when `CCC(c1nnc(-c2ccc(F)cc2)s1)n1ccnc1` (stereo not drawn) [Example 19, 2-(1-(1H-imidazol-1-yl)propyl)-5-(4-fluorophenyl)-1,3,4-thiadiazole] was run?
The IC50 was under 50 nM.

Which IC50 does the source give for `CC(c1ccc(-c2ccc(=O)n(C(C)C)c2)s1)n1ccnc1` (stereo not drawn) [Example 21, 5-(5-(1-(1H-imidazol-1-yl)ethyl)thiophen-2-yl)-1-isopropylpyridin-2(1H)-one] here?
The IC50 was under 50 nM.

For `CC(c1cnc(-c2ccc(C#N)cc2)s1)n1ccnc1` (stereo not drawn) [Example 22, 4-(5-(1-(1H-imidazol-1-yl)ethyl)thiazol-2-yl)benzonitrile], which IC50 is on record?
The IC50 was under 50 nM.

With `CC(C)CC(c1ccc(-c2ccc(O)cc2)s1)n1ccnc1` (stereo not drawn) [Example 23, 4-(5-(1-(1H-imidazol-1-yl)-3-methylbutyl)-thiophen-2-yl)phenol] as the compound, how does the IC50 read?
The IC50 was under 50 nM.

`COc1ccc(-c2ccc(C(C)n3ccnc3)s2)cn1` (stereo not drawn) [Example 25, 5-[5-(1-Imidazol-1-yl-ethyl)-thiophen-2-yl]-2-methoxy-pyridine] was tested. Which IC50 did it give?
Its IC50 is under 50 nM.

With `CC(C)(c1ccc(-c2ccc(O)cc2)s1)n1ccnc1` [Example 26, 4-[5-(1-Imidazol-1-yl-1-methyl-ethyl)-thiophen-2-yl]-phenol] as the compound, how does the IC50 read?
The IC50 was under 50 nM.
